According to patent publication US20040043919A1, “Method for the treatment of neurological and neuropsychological disorders” (priority 2003, published 2004):

What was measured:
[1] = molecular target: T1, attractin from human plasma (Homo sapiens, UniProt O75882); assay: MALDI-TOF analysis of peptide cleavage by purified attractin in presence or absence of isoleucyl-thiazolidine; assay type: biochemical; details: peptide 25 μM, 37° C.; for Cleavage of bioactive peptide by purified attractin: tricine/HCl pH 7.6, MALDI-TOF (FIG. 1)
T1 construct: was prepared from 100 ml plasma from healthy humans; tissue Baxter GmbH Germany, Plasmazentrum Halle (supplier of the plasma); host or cells: human plasma
Experimental: (§1) Attractin from human plasma (Baxter GmbH Germany, Plasmazentrum Halle) was prepared from 100 ml plasma from healthy humans. Matrix-assisted laser desorption/ionisation mass spectrometry was carried out using the Hewlett-Packard G2025 LD-TOF System.
To obtain spectra of peptides (25 μM) by the treatment of purified DP IV and attractin in the presence or absence of isoleucyl-thiazolidine (10 μM), substrates were incubated at 37° C. with 40 mM tricine/HCl buffer pH 7.6 and enzyme solution in a 2:2:1 ratio. Samples of the reaction mixtures were removed at various time intervals and mixed with equal volumes of the matrix solution. By mixing assay sample and matrix, the low pH of the matrix solution stopped the enzymatic reaction. A small volume of this mixture was transferred to a probe tip and immediately evaporated in a Hewlett-Packard G2024A Sample Prep Accessory.
(§2) In further studies the proteolytic activity of attractin has been investigated. […] In addition, the cleavage of bioactive peptides such as NP Y, RANTES, GIP, and Glucagon by purified attractin has been analyzed. […] Previously, differences within hydrolysis of the chemokine RANTES by DP IV and attractin have been described^4.

[2] = system: olfactory bulbectomized rats; details: 7-day i.c.v. administration; cited from earlier work
[3] = molecular target: T1, attractin from human plasma; assay: Proteolytic activity of purified attractin (chromogenic substrate kinetics); assay type: biochemical
Experimental: as §1, §2

[4] = Anxiolytic effect on administration of the attractin inhibitor; assay type: in vivo; details: no method or data given
rats = details: administered into the dorsal periaqueductal gray matter; cited from earlier work

T1 sequence (O75882 84-1272 isoform O75882-2 limits assumed): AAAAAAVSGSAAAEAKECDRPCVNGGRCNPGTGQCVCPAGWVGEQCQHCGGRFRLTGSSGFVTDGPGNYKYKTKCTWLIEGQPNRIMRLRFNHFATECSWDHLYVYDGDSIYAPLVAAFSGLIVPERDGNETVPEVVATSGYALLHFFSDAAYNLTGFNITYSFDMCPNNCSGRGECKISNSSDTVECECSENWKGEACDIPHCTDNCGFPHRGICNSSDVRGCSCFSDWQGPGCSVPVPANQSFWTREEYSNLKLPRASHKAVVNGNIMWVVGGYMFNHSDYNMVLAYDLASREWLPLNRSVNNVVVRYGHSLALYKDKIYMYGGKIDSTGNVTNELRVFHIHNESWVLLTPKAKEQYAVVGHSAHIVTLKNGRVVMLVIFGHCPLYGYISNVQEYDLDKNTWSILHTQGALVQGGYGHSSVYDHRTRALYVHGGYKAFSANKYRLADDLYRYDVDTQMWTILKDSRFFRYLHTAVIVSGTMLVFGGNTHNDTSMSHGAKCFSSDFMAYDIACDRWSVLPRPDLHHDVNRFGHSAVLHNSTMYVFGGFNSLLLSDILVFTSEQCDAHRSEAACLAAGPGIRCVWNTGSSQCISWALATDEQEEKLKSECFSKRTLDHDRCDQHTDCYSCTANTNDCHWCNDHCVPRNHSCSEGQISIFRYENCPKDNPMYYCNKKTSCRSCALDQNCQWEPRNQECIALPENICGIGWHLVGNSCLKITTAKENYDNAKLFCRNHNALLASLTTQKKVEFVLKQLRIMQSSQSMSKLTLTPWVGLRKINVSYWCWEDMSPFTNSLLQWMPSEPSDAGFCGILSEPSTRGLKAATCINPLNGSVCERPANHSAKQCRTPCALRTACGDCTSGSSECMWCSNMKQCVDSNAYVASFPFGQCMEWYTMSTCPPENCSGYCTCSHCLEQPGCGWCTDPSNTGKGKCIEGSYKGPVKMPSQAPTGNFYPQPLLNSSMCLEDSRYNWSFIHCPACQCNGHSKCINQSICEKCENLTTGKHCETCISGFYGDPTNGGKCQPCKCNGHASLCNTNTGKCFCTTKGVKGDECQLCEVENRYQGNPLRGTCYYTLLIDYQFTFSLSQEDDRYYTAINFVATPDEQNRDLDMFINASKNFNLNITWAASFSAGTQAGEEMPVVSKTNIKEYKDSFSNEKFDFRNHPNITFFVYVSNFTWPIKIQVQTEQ

RANTES1-15: synthetic N-terminal fragment 1-15 of the chemokine RANTES (SPYSSDTTPCCFAYI; UniProt P13501 24-38, looked up, fragment)
Cleavage of bioactive peptide by purified attractin [1]: capable of releasing sequentially the first (Ser-Pro) as well as the second dipeptide (Tyr-Ser)

Neuropeptide Y [NP Y]
Cleavage of bioactive peptide by purified attractin [1]: capable of releasing the N-terminal dipeptide Tyr-Pro
Behavioral and neurotransmitter deficits [2]: attenuated behavioral and neurotransmitters deficits

NCC(=O)N1CCCC1C(=O)Nc1ccc([N+](=O)[O-])cc1 (stereo not drawn) [Gly-Pro-pNA]
Km [3]: 140 µM

isoleucyl-thiazolidine hemifumarate
Cleavage of NP Y by attractin in presence of inhibitor ([1]; isoleucyl-thiazolidine 10 μM, pH 7.6, MALDI-TOF (FIG. 1B)): the cleavage was suppressed
Anxiolytic effect [4]: exhibits an anxiolytic effect

NC(N)=NCCC[C@@H](NC(=O)C(c1ccccc1)c1ccccc1)C(=O)NCc1ccc(O)cc1 [BIBP3226]
Time spent in active social interaction (rats): decreased the time spent in active social interaction
